Experimental data: patent US8507460B2, “Substituted 3′,5′-cyclic phosphates of purine nucleotide compounds and pharmaceutical compositions for the treatment of viral infections” (priority 2011, dated 2013)

Tests used:
[1] = Cytotoxicity evaluation, CellTiter-Blue Cell Viability Assay; format: cell-based; conditions: human, Zluc cells, read-out: HCV Replicon CC50
Protocol: For cytotoxicity evaluation, Zluc cells were treated with compound as described above, and cell viability was monitored using the CellTiter-Blue Cell Viability Assay (Promega) by adding 20 μL of the assay solution to each well. The plates were then incubated at 37° C./5% CO2 for at least 3 hours.

[2] = Stability in simulated gastric and intestinal fluids; format: in vitro ADME; conditions: 100 μM, 2 hours at 37° C., percent of peak area at time zero
Protocol: Simulated gastric and intestinal fluids containing pepsin and pancreatin respectively were prepared according to the U.S. Pharmacopoeia USP291 procedure (www.pharmacopeia.cn/v29240/usp29nf24s0_ris1s126.html). Test compound (final concentration 100 μM) was incubated in duplicate in the appropriate fluid for 2 hours at 37° C. The samples were quenched with 200 μl cold acetonitrile, vortexed for 30 seconds and then centrifuged at 16,100 g for 10 min. The supernatants were analyzed by HPLC on a C-18 column with UV detection at 252 nm. The time 0 samples were prepared by adding SGF or SIF fluid to the quenching solvent followed by the test compound. Stability of the compound was determined by peak area the test compound after incubation and calculated as percent of the peak area observed at time zero.

[3] = Stability in fresh human whole blood; format: in vitro ADME; conditions: 0.5 μM, percent unchanged
Protocol: (§1) Stability of test compounds were determined in fresh human whole blood with K2EDTA as the anticoagulant (stored refrigerated at 2-8° C. and used within 7 days of receipt). The experiment was conducted with three replicates for each time point. Whole blood, pre-incubated at 37° C. for 10-15 minutes, was fortified with a solution of test compound for a final concentration of 0.5 μM and mixed for 30 sec. At intervals (0, 0.5, 1 and 2 hr), three […] aliquots were combined with 200 μL (each) of an ice-cold solution of the internal standard (carbutamide 500 ng/mL in acetonitrile). The samples were vortexed for 30 sec and then centrifuged at 16,100 g for 5 min. The supernatant was analyzed by LC-MS/MS. The MS peak area ratio of the test compound versus the internal standard was calculated and percent unchanged test compound was calculated for each time point using this ratio.

Stability in mouse blood = format: in vitro ADME; conditions: mouse whole blood, on ice, percent unchanged
Protocol: as §1
The stability in mouse blood was determined on ice at 0, 0.5 and 1 hr as above.

[4] = Stability in liver and intestinal subcellular fractions (microsomes and S9); format: in vitro ADME, human; conditions: 10 μM, NADPH, 60 min, percent unchanged
Protocol: Stability of test compounds were determined in subcellular fractions (microsomes and S9) of human liver and intestine in duplicate for each matrix. Pooled liver and intestinal microsomal, intestinal and liver S9 proteins (1.0 mg/mL), suspended in incubation buffer (100 mM potassium phosphate, pH […], and 0.1 mM EDTA), were preincubated for 5 min at 37° C. with 10 μM of a test compound from a 10 mM stock solution in DMSO (final DMSO concentration was 0.1%); the reaction was initiated by the addition of NADPH (3 mM final concentration). At specific times (0 and 60 min), 0.1 mL samples were taken and the reaction terminated by the addition of 4 volumes of stop solution (acetonitrile with 500 ng/mL carbutamide as an internal standard). The samples were vortexed for 30 sec and then centrifuged at 16,000 g for 10 min. 100 μL of supernatants were transferred to 96 deep-well plates preloaded with 100 μL distilled water and analyzed after mixing by LC-MS/MS. The MS peak area ratio of the test compound versus the internal standard was calculated and percent unchanged test compound over 60 minutes was calculated using this ratio.

[5] = Plasma and liver pharmacokinetics following a single oral dose in monkeys (Example 6); format: in vivo; conditions: cynomolgus monkey, plasma, Cynomolgus monkeys, single oral dose (mg/kg per Table 6: 1a 10, A 25, B 10, C 10, D 50)
Protocol: […] Untreated animals were used for the collection of control liver. Plasma samples were collected at 1, 2, 4, 6, 8, 12 and 24 hours for all compounds and additionally at 0.5 hour (Compounds 1a, B and D), 3 and 10 hours (Compound C), and 32 and 48 hours post dose for Compound A. Terminal liver samples were collected from three animals per time point at 6, 12 and 24 hours post dose for all compounds and additionally at 2 hours (Compounds 1a, B and D), 3 hours (Compound C) and 32 and 48 hours post dose for Compound A. Liver specimens were collected from all animals immediately after the incision. Freezing forceps stored in liquid nitrogen were used to freeze the liver before excision.
Plasma samples were analyzed for the prodrug and 2′-methylguanosine (2′-MeG) or relevant nucleoside by LC-MS/MS. For protein precipitation and extraction, each plasma sample (50 μL) was treated with 500 μL of 0.2% formic acid in acetonitrile and 20 μL of an appropriate internal standard working solution. After vortexing and centrifugation, 500 μL of the sample extracts were transferred to a new plate, dried under N2 at ˜28° C. and reconstituted with 75 μL of 0.2% FA in water. The extracts were chromatographed on an Aquasil C18 column using a gradient system of 0.2% formic acid in water and acetonitrile. The analytes were detected and quantified by tandem mass spectrometry in positive ion mode on an MDS Sciex API5000 or an API4000 equipped with a Turbo Ionspray® interface. The calibration range was 0.500 (LLOQ) to 200 ng/mL in mouse plasma. The corresponding range for molar units is 1.68 to 673 pmol/mL.
Liver samples were analyzed for the active species 2′-methylguanosine triphosphate (2′-MeGTP) or relevant nucleoside triphosphate by LC-MS/MS. The triphosphate levels were assayed by homogenizing (on ice) a known weight of mouse liver with 4× volume of 0.95 M trichloroacetic acid (TCA). Appropriate internal standard solution was added to the homogenate followed by neutralization with 20% ammonium hydroxide solution and addition of 500 μL 1% formic acid. The tissue samples were extracted by weak anion exchange solid phase extraction (SPE). Post extraction, the eluates were evaporated under nitrogen, followed by reconstitution before injection onto the LC-MS/MS system. The samples were chromatographed on a Luna NH2 column using a gradient system of ammonium acetate (1 mM to 20 mM and pH 8.0 to pH 10.0) in water and acetonitrile (70:30). The analyte was detected and quantified by tandem mass spectrometry in positive ion mode on an API4000 equipped with a Turbo Ionspray® interface. The calibration range was 10 to 10000 pmol/mL in mouse liver homogenate (50 to 50000 pmol/g of mouse liver).

CCOc1nc(N)nc2c1ncn2[C@@H]1O[C@@H]2COP(=O)(OC(C)C)O[C@H]2[C@@]1(C)O (single isomer, unassigned) [Compound 1a]
CC50 at 72 h [1]: > 50 µM | Stability SGF ([2]; simulated gastric fluid with pepsin): 99% | Stability SIF ([2]; simulated intestinal fluid with pancreatin): 99% | Stability WB_Human (37° C.; 2 hr) [3]: 101% | Stability WB_Mouse (ice; 1 hr) (Stability in mouse blood): 94% | Stability HIS9 (1 hr) ([4]; HIS9 1.0 mg/mL): 106% | Stability HIM (1 hr) ([4]; human intestinal microsome 1.0 mg/mL): 107% | Stability HLS9 (1 hr) ([4]; human liver S9 fraction 1.0 mg/mL): 111% | Stability HLM (1 hr) ([4]; human liver microsome 1.0 mg/mL): 100% | AUC(0-t) ([5]; normalized to 1 μmol/kg dose, read-out: Plasma prodrug AUC0-24): 0.15 µM·h | Cmax ([5]; normalized to 1 μmol/kg dose, read-out: Plasma prodrug Cmax): 22 nM | Tmax ([5]; read-out: Plasma prodrug Tmax): 2 h
